The values below come from PubChem BioAssay AID1259407 (Chemical Carcinogenesis Research Information System (CCRIS), 2018).

The series deals with CCRIS mutagenicity, Ames/micronucleus/aberration tests. Nature of the series: CCRIS mutagenicity studies.
The mark [1] stands for this setting: Test System: AMES SALMONELLA TYPHIMURIUM, Strain/Indicator: TA98, Metabolic Activation: NONE, Method: STANDARD PLATE.
Where [2] appears, read: Test System: AMES SALMONELLA TYPHIMURIUM, Strain/Indicator: TA100, Metabolic Activation: NONE, Method: STANDARD PLATE.
Setting [3] is: Test System: AMES SALMONELLA TYPHIMURIUM, Strain/Indicator: TA98, Metabolic Activation: RAT, LIVER, S-9, AROCLOR 1254, Method: STANDARD PLATE.

The source made the active and inactive calls. No rule for the calls is given here.

In the case of `Cc1ccc(C)cc1`, the mutagenic call (Test System: AMES SALMONELLA TYPHIMURIUM, Strain/Indicator: TA98, Metabolic Activation: HAMSTER, LIVER, S-9, AROCLOR 1254, Method: PREINCUBATION) is “inactive; negative”; the mutagenic call (Test System: AMES SALMONELLA TYPHIMURIUM, Strain/Indicator: TA98, Metabolic Activation: NONE, Method: PREINCUBATION) was “inactive; negative”; the mutagenic call under setting [1] is “inactive; negative”; the mutagenic call (Test System: AMES SALMONELLA TYPHIMURIUM, Strain/Indicator: TA98, Metabolic Activation: RAT, LIVER, S-9, AROCLOR 1254, Method: PREINCUBATION) is “inactive; negative”; the mutagenic call (Test System: AMES SALMONELLA TYPHIMURIUM, Strain/Indicator: TA98, Metabolic Activation: RAT, LIVER, S-9, AROCLOR, Method: STANDARD PLATE) was “inactive; negative”; the mutagenic call (Test System: AMES SALMONELLA TYPHIMURIUM, Strain/Indicator: TA98, Metabolic Activation: RAT, LIVER, S-9, KC 500, Method: PREINCUBATION) was “inactive; negative”. Further, the mutagenic call is “inactive; negative” (Test System: AMES SALMONELLA TYPHIMURIUM, Strain/Indicator: TA100, Metabolic Activation: HAMSTER, LIVER, S-9, AROCLOR 1254, Method: PREINCUBATION); “inactive; negative” (Test System: AMES SALMONELLA TYPHIMURIUM, Strain/Indicator: TA100, Metabolic Activation: NONE, Method: PREINCUBATION); “inactive; negative” under setting [2]; “inactive; negative” (Test System: AMES SALMONELLA TYPHIMURIUM, Strain/Indicator: TA100, Metabolic Activation: RAT, LIVER, S-9, AROCLOR 1254, Method: PREINCUBATION); “inactive; negative” (Test System: AMES SALMONELLA TYPHIMURIUM, Strain/Indicator: TA100, Metabolic Activation: RAT, LIVER, S-9, AROCLOR, Method: STANDARD PLATE); “inactive; negative” (Test System: AMES SALMONELLA TYPHIMURIUM, Strain/Indicator: TA100, Metabolic Activation: RAT, LIVER, S-9, KC 500, Method: PREINCUBATION). Also, the mutagenic call by setting is: (Test System: AMES SALMONELLA TYPHIMURIUM, Strain/Indicator: TA1535, Metabolic Activation: HAMSTER, LIVER, S-9, AROCLOR 1254, Method: PREINCUBATION) “inactive; negative”; (Test System: AMES SALMONELLA TYPHIMURIUM, Strain/Indicator: TA1535, Metabolic Activation: NONE, Method: PREINCUBATION) “inactive; negative”; (Test System: AMES SALMONELLA TYPHIMURIUM, Strain/Indicator: TA1535, Metabolic Activation: RAT, LIVER, S-9, AROCLOR 1254, Method: PREINCUBATION) “inactive; negative”; (Test System: AMES SALMONELLA TYPHIMURIUM, Strain/Indicator: TA1535, Metabolic Activation: RAT, LIVER, S-9, KC 500, Method: PREINCUBATION) “inactive; negative”; (Test System: AMES SALMONELLA TYPHIMURIUM, Strain/Indicator: TA1537, Metabolic Activation: HAMSTER, LIVER, S-9, AROCLOR 1254, Method: PREINCUBATION) “inactive; negative”; (Test System: AMES SALMONELLA TYPHIMURIUM, Strain/Indicator: TA1537, Metabolic Activation: NONE, Method: PREINCUBATION) “inactive; negative”. Further, the mutagenic call was “inactive; negative” (Test System: AMES SALMONELLA TYPHIMURIUM, Strain/Indicator: TA1537, Metabolic Activation: RAT, LIVER, S-9, AROCLOR 1254, Method: PREINCUBATION); “inactive; negative” (Test System: AMES SALMONELLA TYPHIMURIUM, Strain/Indicator: TA1537, Metabolic Activation: RAT, LIVER, S-9, KC 500, Method: PREINCUBATION); “inactive; negative” (Test System: AMES SALMONELLA TYPHIMURIUM, Strain/Indicator: TA1538, Metabolic Activation: NONE, Method: PREINCUBATION); “inactive; negative” (Test System: AMES SALMONELLA TYPHIMURIUM, Strain/Indicator: TA1538, Metabolic Activation: RAT, LIVER, S-9, KC 500, Method: PREINCUBATION); “inactive; negative” (Test System: AMES SALMONELLA TYPHIMURIUM, Strain/Indicator: UTH8413, Metabolic Activation: NONE, Method: STANDARD PLATE); “inactive; negative” (Test System: AMES SALMONELLA TYPHIMURIUM, Strain/Indicator: UTH8413, Metabolic Activation: RAT, LIVER, S-9, AROCLOR, Method: STANDARD PLATE). In addition, the mutagenic call runs as follows: (Test System: AMES SALMONELLA TYPHIMURIUM, Strain/Indicator: UTH8414, Metabolic Activation: NONE, Method: STANDARD PLATE) “inactive; negative”; (Test System: AMES SALMONELLA TYPHIMURIUM, Strain/Indicator: UTH8414, Metabolic Activation: RAT, LIVER, S-9, AROCLOR, Method: STANDARD PLATE) “inactive; negative”; (Test System: E. COLI, Strain/Indicator: WP2 UVRA, Metabolic Activation: NONE, Method: PREINCUBATION) “inactive; negative”; (Test System: E. COLI, Strain/Indicator: WP2 UVRA, Metabolic Activation: RAT, LIVER, S-9, KC 500, Method: PREINCUBATION) “inactive; negative”.
Regarding `CC1(C)SC2[C@H](NC(=O)C(N)c3ccccc3)C(=O)N2[C@H]1C(=O)O.[Cl][Pt].[H+]` (stereo partly drawn), the mutagenic call (Test System: MOUSE LYMPHOMA, Strain/Indicator: L5178Y(LY-R) (HGPRT)/6-THIOGUANINE, Metabolic Activation: NONE) is “inactive; negative”.
In the case of `O=C(O)CCCl`, the mutagenic call reads like this: (Test System: Ames Salmonella typhimurium, Strain/Indicator: TA98, Metabolic Activation: None, Method: Preincubation) “inactive; negative”; (Test System: Ames Salmonella typhimurium, Strain/Indicator: TA98, Metabolic Activation: Rat, Liver, S9, Sodium phenobarbital and 5,6-benzoflavone (10%), Method: Preincubation) “inactive; negative”; (Test System: Ames Salmonella typhimurium, Strain/Indicator: TA100, Metabolic Activation: None, Method: Preincubation) “active; positive”; (Test System: Ames Salmonella typhimurium, Strain/Indicator: TA100, Metabolic Activation: Rat, Liver, S9, Sodium phenobarbital and 5,6-benzoflavone (10%), Method: Preincubation) “active; positive”; (Test System: Ames Salmonella typhimurium, Strain/Indicator: TA1535, Metabolic Activation: None, Method: Preincubation) “active; positive”; (Test System: Ames Salmonella typhimurium, Strain/Indicator: TA1535, Metabolic Activation: Rat, Liver, S9, Sodium phenobarbital and 5,6-benzoflavone (10%), Method: Preincubation) “active; positive”. Further, the mutagenic call was “inactive; negative” (Test System: Ames Salmonella typhimurium, Strain/Indicator: TA1537, Metabolic Activation: Rat, Liver, S9, Sodium phenobarbital and 5,6-benzoflavone (10%), Method: Preincubation); “active; positive” (Test System: E. coli, Strain/Indicator: WP2uvrA/pKM101, Metabolic Activation: None, Method: Preincubation); “active; positive” (Test System: E. coli, Strain/Indicator: WP2uvrA/pKM101, Metabolic Activation: Rat, Liver, S9, Sodium phenobarbital and 5,6-benzoflavone (10%), Method: Preincubation).
`Oc1ccc(O)c2c(O)c3ccccc3c(O)c12`: the mutagenic call under setting [1] is “inactive; negative”; the mutagenic call under setting [3] is “inactive; negative”; the mutagenic call under setting [2] is “inactive; negative”; the mutagenic call (Test System: AMES SALMONELLA TYPHIMURIUM, Strain/Indicator: TA100, Metabolic Activation: RAT, LIVER, S-9, AROCLOR 1254, Method: STANDARD PLATE) is “inactive; negative”; the mutagenic call (Test System: AMES SALMONELLA TYPHIMURIUM, Strain/Indicator: TA1535, Metabolic Activation: NONE, Method: STANDARD PLATE) is “inactive; negative”; the mutagenic call (Test System: AMES SALMONELLA TYPHIMURIUM, Strain/Indicator: TA1535, Metabolic Activation: RAT, LIVER, S-9, AROCLOR 1254, Method: STANDARD PLATE) is “inactive; negative”. Moreover, the mutagenic call (Test System: AMES SALMONELLA TYPHIMURIUM, Strain/Indicator: TA1537, Metabolic Activation: NONE, Method: STANDARD PLATE) is “active; positive”; the mutagenic call (Test System: AMES SALMONELLA TYPHIMURIUM, Strain/Indicator: TA1537, Metabolic Activation: RAT, LIVER, S-9, AROCLOR 1254, Method: STANDARD PLATE) was “active; positive”; the mutagenic call (Test System: AMES SALMONELLA TYPHIMURIUM, Strain/Indicator: TA1538, Metabolic Activation: RAT, LIVER, S-9, AROCLOR 1254, Method: STANDARD PLATE) is “inactive; negative”.
As for `Cn1c(N)nc2c3ccncc3ccc21`, the mutagenic call under setting [3] was “active; positive”.
Turning to `CN1CCN(c2ccc3nc(-c4ccc5nc(-c6ccc(N(CCCl)CCCl)cc6)[nH]c5c4)[nH]c3c2)CC1`, the mutagenic call is “inactive; negative” under setting [1]; “inactive; negative” under setting [2]; “inactive; negative” (Test System: AMES SALMONELLA TYPHIMURIUM, Strain/Indicator: TA102, Metabolic Activation: NONE, Method: STANDARD PLATE).
With `O=c1cccccc1O`, the mutagenic call by setting is: (Test System: MOUSE LYMPHOMA, Strain/Indicator: L5178Y (TK+/TK-), Metabolic Activation: NONE, Method: SUSPENSION/PLATE) “active; positive. reevaluation of results: positive”; (Test System: MOUSE LYMPHOMA, Strain/Indicator: L5178Y (TK+/TK-), Metabolic Activation: RAT, LIVER, S-9, AROCLOR 1254, Method: SUSPENSION/PLATE) “inactive; positive. reevaluation of results: negative”.
